From ChEMBL document CHEMBL1201862, “PubChem BioAssay data set” (2004)
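Where inhibition never reached the appropriate level, the endpoint shown equals the highest concentration tested. Otherwise, values were interpolated linearly from a five-concentration, 48-hour dose response in 96-well plates. GI50 marks 50% less growth.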 Activity calls are given as the source filed them. Rule as the data show it: active = GI50 up to about 1.1 µM and inactive = higher. Peptide text beside a SMILES is read from it. * marks the point of attachment. Boc = CC(C)(C)OC(=O)*

Tests used:
Assay in all cases: DTP human tumour cell line panel, 48 h
M14 = system: M14
NCI-H460 = system: NCI-H460
U-251 = system: U-251
SK-OV-3 = system: SK-OV-3
A549 = system: A549
CCRF-CEM = system: CCRF-CEM
SNB-75 = system: SNB-75
OVCAR-4 = system: OVCAR-4
HCC 2998 = system: HCC 2998
LOX IMVI = system: LOX IMVI
MDA-MB-231 = system: MDA-MB-231
SK-MEL-28 = system: SK-MEL-28
HCT-15 = system: HCT-15
SK-MEL-5 = system: SK-MEL-5
DU-145 = system: DU-145
SN12C = system: SN12C
RXF 393 = system: RXF 393
ACHN = system: ACHN
CAKI-1 = system: CAKI-1
Malme-3M = system: Malme-3M

| SMILES | GI50 (M14) | GI50 (NCI-H460) | GI50 (U-251) | GI50 (SK-OV-3) | GI50 (A549) | GI50 (CCRF-CEM) | GI50 (SNB-75) | GI50 (OVCAR-4) | GI50 (HCC 2998) | GI50 (LOX IMVI) | GI50 (MDA-MB-231) | GI50 (SK-MEL-28) | GI50 (HCT-15) | GI50 (SK-MEL-5) | GI50 (DU-145) | GI50 (SN12C) | GI50 (RXF 393) | GI50 (ACHN) | GI50 (CAKI-1) | GI50 (Malme-3M) |
| --- | --- | --- | --- | --- | --- | --- | --- | --- | --- | --- | --- | --- | --- | --- | --- | --- | --- | --- | --- | --- |
| O=C1CSC(c2c[nH]c3ccccc23)N1c1ccc(Cl)cc1Cl (centres undefined) | > 100 µM (inactive) | > 100 µM (inactive) | > 100 µM (inactive) | > 100 µM (inactive) | > 100 µM (inactive) | > 100 µM (inactive) | 0.865 µM (active) | > 100 µM (inactive) | > 100 µM (inactive) | > 100 µM (inactive) | > 100 µM (inactive) | > 100 µM (inactive) | > 100 µM | > 100 µM (inactive) | > 100 µM (inactive) | > 100 µM (inactive) | > 100 µM (inactive) | – | – | – |
| COC(=O)C1=C(\c2ccccc2)c2ccccc2C(=O)N(C2CCCCC2)/C=C\1 | 28.6 µM (inactive) | 16.1 µM (inactive) | 21 µM (inactive) | 74.1 µM (inactive) | 16 µM (inactive) | 12 µM (inactive) | 65.6 µM (inactive) | 27.7 µM (inactive) | 10.7 µM (inactive) | 14.2 µM (inactive) | 17.2 µM (inactive) | 17.9 µM (inactive) | 24.1 µM | 11.5 µM (inactive) | 60 µM (inactive) | 28.3 µM (inactive) | – | 15.6 µM (inactive) | 20.9 µM (inactive) | 25.3 µM (inactive) |
| FC(F)(F)c1ccc(Cc2nc3cc4ccccc4cc3[nH]2)cc1 | > 100 µM (inactive) | > 100 µM (inactive) | 71.3 µM (inactive) | – | > 100 µM (inactive) | > 100 µM (inactive) | 3.78 µM (inactive) | 31.5 µM (inactive) | > 100 µM (inactive) | 77.8 µM (inactive) | > 100 µM (inactive) | > 100 µM (inactive) | > 100 µM | 54.6 µM (inactive) | > 100 µM (inactive) | > 100 µM (inactive) | 51.6 µM (inactive) | 49 µM (inactive) | 73.3 µM (inactive) | > 100 µM (inactive) |
| c1ccc(C2=NCCc3cc4c(cc32)OCO4)cc1 | > 100 µM (inactive) | – | > 100 µM (inactive) | > 100 µM (inactive) | > 100 µM (inactive) | > 10 µM (inactive) | – | > 100 µM (inactive) | > 100 µM (inactive) | > 100 µM (inactive) | > 100 µM (inactive) | > 100 µM (inactive) | – | > 100 µM (inactive) | > 100 µM (inactive) | > 100 µM (inactive) | > 100 µM (inactive) | – | > 100 µM (inactive) | > 100 µM (inactive) |
| O=C1Cc2cn[nH]c2-c2ccccc2N1 | 22.5 µM (inactive) | 24.2 µM (inactive) | 23.6 µM (inactive) | > 85.7 µM (inactive) | 38 µM (inactive) | 20.7 µM (inactive) | 79.3 µM (inactive) | 30.3 µM (inactive) | 26.2 µM (inactive) | 16.3 µM (inactive) | > 45.5 µM (inactive) | 63.1 µM (inactive) | 23.8 µM | 26.4 µM (inactive) | 40.7 µM (inactive) | > 44.4 µM (inactive) | 28.2 µM (inactive) | 28.8 µM (inactive) | – | > 46.7 µM (inactive) |
| CC(C)=CCC/C(C)=C/CC/C(C)=C/[C@@H]1[C@@H](CO)[C@]1(C)CC/C=C(\C)CCC=C(C)C | 91.4 µM (inactive) | 47.6 µM (inactive) | 53.7 µM (inactive) | > 100 µM (inactive) | 39.8 µM (inactive) | 0.251 µM (active) | > 100 µM (inactive) | > 100 µM (inactive) | – | 11.5 µM (inactive) | 21.6 µM (inactive) | > 100 µM (inactive) | 30.3 µM | 46 µM (inactive) | 39.6 µM (inactive) | 41.1 µM (inactive) | 23.7 µM (inactive) | 17.2 µM (inactive) | 46.3 µM (inactive) | > 100 µM (inactive) |
| COc1cc2c3c(c1O)-c1c(ccc(OC)c1OC)CC3N(C)CC2 (centres undefined) | > 100 µM (inactive) | > 100 µM (inactive) | > 100 µM (inactive) | > 100 µM (inactive) | > 100 µM (inactive) | 91.4 µM (inactive) | > 100 µM (inactive) | > 100 µM (inactive) | – | > 100 µM (inactive) | > 100 µM (inactive) | – | > 100 µM | > 100 µM (inactive) | > 100 µM (inactive) | > 100 µM (inactive) | > 100 µM (inactive) | > 100 µM (inactive) | > 100 µM (inactive) | – |
| O=C(O)C(O)c1ccc(F)cc1 (centres undefined) | > 100 µM (inactive) | > 100 µM (inactive) | > 100 µM (inactive) | > 100 µM (inactive) | > 100 µM (inactive) | – | > 100 µM (inactive) | > 100 µM (inactive) | – | > 100 µM (inactive) | > 100 µM (inactive) | > 100 µM (inactive) | > 100 µM | – | > 100 µM (inactive) | > 100 µM (inactive) | > 100 µM (inactive) | > 100 µM (inactive) | > 100 µM (inactive) | > 100 µM (inactive) |
| N#C[BH2-][n+]1cn(C2CC(O)C(COP(=O)(O)OC3CC(n4c[n+]([BH2-]C#N)c5c(=O)[nH]c(N)nc54)OC3CO)O2)c2nc(N)[nH]c(=O)c21 (centres undefined) | > 100 µM (inactive) | > 100 µM (inactive) | > 100 µM (inactive) | – | > 100 µM (inactive) | > 100 µM (inactive) | > 100 µM (inactive) | > 100 µM (inactive) | > 100 µM (inactive) | – | > 100 µM (inactive) | > 100 µM (inactive) | > 100 µM | > 100 µM (inactive) | > 100 µM (inactive) | > 100 µM (inactive) | > 100 µM (inactive) | > 100 µM (inactive) | > 100 µM (inactive) | > 100 µM (inactive) |
| COc1ccc(/C=C2\CCCc3ccccc3C2=O)cc1 | 0.0335 µM (active) | 0.0893 µM (active) | 0.508 µM (active) | 0.119 µM (active) | 0.197 µM (active) | 0.578 µM (active) | 0.0649 µM (active) | 14.5 µM (inactive) | 0.2 µM (active) | 0.179 µM (active) | 0.201 µM (active) | 3.83 µM (inactive) | 0.0723 µM | 0.102 µM (active) | 0.185 µM (active) | 0.117 µM (active) | – | 3.15 µM (inactive) | 2.82 µM (inactive) | 0.0174 µM (active) |
| CC(NC(=O)OC(C)(C)C)C(=O)NC(Cc1ccccc1)C(=O)NCC(=O)O (stereo not drawn) (Boc-Ala-Phe-Gly-OH; configuration not given here) | > 100 µM (inactive) | > 100 µM (inactive) | > 100 µM (inactive) | > 100 µM (inactive) | > 100 µM (inactive) | > 100 µM (inactive) | > 100 µM (inactive) | – | > 100 µM (inactive) | > 100 µM (inactive) | > 100 µM (inactive) | > 100 µM (inactive) | > 100 µM | > 100 µM (inactive) | > 100 µM (inactive) | > 100 µM (inactive) | > 100 µM (inactive) | > 100 µM (inactive) | > 100 µM (inactive) | > 100 µM (inactive) |
